Measured values reported in patent US20250040549A1, “FUNGICIDAL COMPOSITIONS” (SYNGENTA CROP PROTECTION AG, priority 2021, published 2025).

Legend:
[1] = tested on: Alternaria solani; test: Alternaria solani growth inhibition in nutrient broth, microtiter plate; assay type: cell-based; conditions: alone, 48 hrs
Procedure: (§1) Alternaria solani (Early Blight Tomato/Potato): Conidia of the fungus from cryogenic storage were directly mixed into nutrient broth (PDB potato dextrose broth). A DMSO solution of the test compounds was placed into a microtiter plate (96-well format) and the nutrient broth containing the fungal spores was added to it. The test plates were incubated at 24 C and the inhibition of growth was determined photometrically after 48 hrs.

[2] = tested on: Botrytis cinerea; test: Botrytis cinerea growth inhibition in nutrient broth, microtiter plate; assay type: cell-based; conditions: alone, 72 hrs
Procedure: as §1, with “Botrytis cinerea (Gray Mould):” for “Alternaria solani (Early Blight Tomato/Potato):”, “([…]” for “(PDB”, “72” for “48”

[3] = tested on: Glomerella Lagenarium Syn. Colletotrichum lagenarium; test: Glomerella lagenarium growth inhibition in nutrient broth, microtiter plate; assay type: cell-based; conditions: alone, 72 hrs
Procedure: as §1, with “Glomerella Lagenarium Syn. Colletotrichum lagenarium (Anthracnose of Cucurbits):” for “Alternaria solani (Early Blight Tomato/Potato):”, “72 hrs at 620 nm.” for “48 hrs.”

[4] = tested on: Mycosphaerella arachidis Syn. Cercospora arachidicola; test: Mycosphaerella arachidis growth inhibition in nutrient broth, microtiter plate; assay type: cell-based; conditions: alone, 5-6 days
Procedure: as §1, with “Mycosphaerella arachidis Syn. Cercospora arachidicola (Brown Leaf Spot of Peanut):” for “Alternaria solani (Early Blight Tomato/Potato):”, “5-6 days at 620 nm” for “48 hrs.”

[5] = tested on: Phakopsora pachyrhizi (Asian soybean rust); test: Phakopsora pachyrhizi on leaf disks from sprayed soybean plants; assay type: in vivo; conditions: alone, 11 to 14 days after inoculation; for inhibition at 1 g/ha: 1 g ai/ha
Procedure: Phakopsora Pachyrhizi (Soybean Rust):
Whole soybean plants are treated with the recited active ingredients 4 weeks after planting. 1 day after spraying leaf disks are cut from the first trifoliate leaf. Five repetitions at each rate are conducted. The leaf disks are inoculated with Phakopsora pachyrhizi (Asian soybean rust) one day after treatment. Evaluation of the leaf disks is conducted 11 to 14 days after inoculation and the activity is derived from the relation of the treated vs untreated, infested check. The rates of the active ingredients used are given in Table as g active ingredient (a.i.)/ha.

[6] = tested on: Sclerotinia sclerotiorum; test: Sclerotinia sclerotiorum growth inhibition in nutrient broth, microtiter plate; assay type: cell-based; conditions: alone, 72 hrs
Procedure: as §1, with “Sclerotinia sclerotiorum (Cottony Rot, White Mold, Etc.): Mycelial fragments” for “Alternaria solani (Early Blight Tomato/Potato): Conidia”, “fungus prepared” for “fungus”, “a fresh liquid culture” for “cryogenic storage”, “72 hrs at 620 nm.” for “48 hrs.”

[7] = tested on: Septoria tritici; test: Septoria tritici growth inhibition in nutrient broth, microtiter plate; assay type: cell-based; conditions: alone, 72 hrs
Procedure: as §1, with “Septoria tritici (Leaf Blotch):” for “Alternaria solani (Early Blight Tomato/Potato):”, “72” for “48”

[8] = Phakopsora pachyrhizi, foliar, read-out: Observed Activity (%)

Row | Structure (SMILES) | Observed Activity (%) ([1]; 0.005 g ai/ha) | Observed Activity (%) ([2]; 0.005 g ai/ha) | Observed Activity (%) ([3]; 0.001 g ai/ha) | Observed Activity (%) ([3]; 0.005 g ai/ha) | Observed Activity (%) ([4]; 0.001 g ai/ha) | Observed Activity (%) ([4]; 0.005 g ai/ha) | inhibition at 1 g/ha [5, 8] [%] | Observed Activity (%) ([6]; 0.001 g ai/ha) | Observed Activity (%) ([6]; 0.005 g ai/ha) | Observed Activity (%) ([7]; 0.001 g ai/ha) | Observed Activity (%) ([5]; 0.25 g ai/ha) | Observed Activity (%) ([5]; 0.5 g ai/ha) | further results
1 | COC(=O)NCc1cc(-c2ccn(-c3c(F)cc(C(C)C)cc3F)n2)ccc1C [Compound A-1.1, Methyl N-[[5-[1-(2,6-difluoro-4-isopropyl-phenyl)pyrazol-3-yl]-2-methyl-phenyl]methyl]carbamate] | 0 | 0 | 0 | 0 | 0 | 20 | 0 | 0 | 0 | 20 | – | – | –
2 | COC(=O)NCc1cc(-c2ccn(-c3c(F)cc(C4CC4)cc3F)n2)ccc1C [Compound A-1.3, methyl N-[[5-[1-(4-cyclopropyl-2,6-difluoro-phenyl)pyrazol-3-yl]-2-methyl-phenyl]methyl]carbamate] | 20 | 0 | 0 | 0 | 0 | 50 | 2 | 0 | 0 | 50 | – | – | Observed Activity (%) ([1]; 0.01 g ai/ha): 50%; inhibition at 0.5 g/ha ([5]; Phakopsora pachyrhizi, foliar, 0.5 g ai/ha, read-out: Observed Activity (%)): 0%
3 | O=C(Nc1ccccc1F)c1ccc(-c2noc(C(F)(F)F)n2)cc1 [Flufenoxadiazam, flufenoxadiazam] | – | – | – | – | – | – | – | – | – | – | 0 | 10 | Observed Activity (%) ([1]; 2.22 g ai/ha): 0%; Observed Activity (%) ([1]; 6.66 g ai/ha): 0%; Observed Activity (%) ([1]; 20 g ai/ha): 0%
4 | CCC(=O)Oc1c(OC)ccnc1C(=O)N[C@@H](C)C(=O)O[C@@H](C)[C@@H](C)c1ccccc1C [Metarylpicoxamid, metarylpicoxamid] | – | – | – | – | – | – | – | – | – | – | 0 | 34 | Observed Activity (%) ([1]; 0.074 g ai/ha): 0%; Observed Activity (%) ([1]; 0.22 g ai/ha): 20%; Observed Activity (%) ([1]; 0.66 g ai/ha): 50%; Observed Activity (%) ([2]; 0.0246 g ai/ha): 0%; Observed Activity (%) ([2]; 0.074 g ai/ha): 20%; Observed Activity (%) ([2]; 0.22 g ai/ha): 50%; Observed Activity (%) ([3]; 0.22 g ai/ha): 0%; Observed Activity (%) ([3]; 0.66 g ai/ha): 0%; Observed Activity (%) ([3]; 2 g ai/ha): 70%; Observed Activity (%) ([4]; 0.0080 g ai/ha): 20%; Observed Activity (%) ([4]; 0.0246 g ai/ha): 50%; Observed Activity (%) ([6]; 2 g ai/ha): 50%; Observed Activity (%) ([7]; 0.008 g ai/ha): 20%; Observed Activity (%) ([7]; 0.0246 g ai/ha): 50%; Observed Activity (%) ([7]; 0.074 g ai/ha): 70%
